“And” between values parts separate entries of the source, which are not always exact repeats. Identical values can stand only once.

The first assay relates to CTGF promoter occupancy in HEK293FT cells. Description: ChIP-qPCR. Format: cell-based. Conditions: VGLL4-overexpressing HEK293FT cells + 1,6-Hex; three biological replicates. Here is the method: ChIP was carried out following a procedure previously described (An et al, [2018]). Briefly, cells were first cross-linked with freshly prepared formaldehyde (final concentration 1.42%) for 15 min, followed by addition of glycine (125 mM) for 5 min at room temperature. After a two-round wash with cold PBS, cells were scraped and collected by centrifuge. Resulting pelleted cells were resuspended in 400 μl of ChIP lysis buffer (50 mM HEPES/KOH, pH 7.5; 140 mM NaCl; 1 mM EDTA; 1% Triton X-100; 0.1% Na-deoxycholate and protease inhibitors) and subjected to sonication with Bioruptor at high power for 15 cycles (30 s on and 30 s off for each cycle) to shear the chromatin. Samples were then further diluted twice with lysis buffer and the diluted samples were centrifuged to clear the supernatants. Meanwhile, eighty microliters of each of the supernatants were directly processed to extract total DNA as whole-cell input. […] Prewashed protein A/G beads (L2118; Santa Cuz) were added into these samples, which were then incubated for another 3 h. These incubated samples were washed five times with ChIP lysis buffer and then mixed with 100 μl of 10% chelex (1421253; Bio-Rad), followed by being boiled for 10 min and centrifuged at 4 °C for 1 min. Resulting supernatants were transferred to new tubes. Subsequently, another 120 μl of MilliQ water were added to each fraction of beads pellet, and the resulting mixtures were vortexed for 10 s, and then centrifuged again to spin down the beads. The supernatants were combined as templates for follow-up qPCR analysis.
Regarding `OCCCCCCO` [1,6-Hex, 1,6-hexanediol], the “ChIP-qPCR enrichment of CTCF on CTGF promoter” value is 0.0726 and 0.0717 and 0.0639; the “ChIP-qPCR enrichment of H3K27ac on CTGF promoter” value is 0.0982 and 0.0959 and 0.0952; the “ChIP-qPCR enrichment of RNA Pol II on CTGF promoter” value is 0.1941 and 0.1778 and 0.182.

The next assay relates to MYC / CYR61 promoter-enhancer interactions in HEK293FT cells. As to the kind of experiment: Chromatin conformation capture (3C) assay. Format: cell-based. As to conditions: VGLL4-overexpressing HEK293FT cells + 1,6-Hex; three biological replicates. Here is the method: The 3C assay was performed following a protocol described previously ([…] et al, [2007]). Briefly, cells were incubated with 0.05% trypsin for 10 min before detaching. Collected cells were cross-linked with 2% formaldehyde for 10 min, followed by treatment with 0.125 M glycine for 5 min to quench the cross-linking reaction. Cells were then pelleted and incubated with a lysis buffer (10 mM Tris-HCl pH 7.5, 10 mM NaCl, 5 mM MgCl2 and 0.1 mM EGTA) at 4 °C for 15 min. Resulting pelleted nuclei were digested with Hind-III restriction enzyme (NEB) at 37 °C overnight and subsequently ligated with T4 DNA ligase (NEB) at 16 °C for 4 h. Thereafter, the samples were incubated at 65 °C overnight to de-crosslink the protein-DNA complexes and were subjected to phenol-chloroform extraction and ethanol precipitation to obtain the 3C templates. Primers flanking the Hind-III restriction sites located close to TEAD4-targeted gene CYR61 (Xie et al, [2019]) or MYC (Zanconato et al, [2015]) promoter (anchor primers) and enhancers were used to quantitively measure the promoter-enhancer interactions. The primers used are listed in Appendix Table S1.
As to `OCCCCCCO` [1,6-Hex, 1,6-hexanediol], the “3C interaction promoter-enhance1 (MYC locus)” value is 0.8 and 0.75 and 0.85; the “3C interaction promoter-enhance 4 (MYC locus)” value was 0.8 and 0.65 and 0.74.

The test system of another assay is CTGF mRNA. Description: RT-PCR of TEAD4 target genes. Format: cell-based. Conditions: GLUP-treated cells with or without 1,6-Hex, mRNA. Here is the method:
For RT-PCR, total RNA was isolated from cells using RNA Isolator Total RNA Extraction Reagent (Vazyme) according to the manufacturer’s instructions. The isolated RNA was reverse transcribed into cDNA using HiScpt II (Vazyme). Quantitative RT-PCR was performed using a CFX96^TM Real-Time system (Bio-Rad) and SYBR Green PCR master mix (Yeasen). The fold change in the gene expression was calculated using the comparative Ct method, and three replicates were tested for each cDNA sample. ACTB was used as an internal reference. Transcript copies of TEAD4 were determined by generating standard curves using plasmid DNA (TEAD4). Each experiment was repeated at least three times. The sequences of the primers are listed in Appendix Table S1.
`OCCCCCCO` [1,6-Hex, 1,6-hexanediol]: the “Effect on GLUP-induced CTGF downregulation” value is reported as “obviously abrogated GLUP-induced downregulation of CTGF”.

The assay is the same for the next values; noted with them: VGLL4-overexpressing HEK293FT cells + 1,6-Hex 0.25% v/v; three biological replicates.
For `OCCCCCCO` [1,6-Hex, 1,6-hexanediol], the “CTGF mRNA level” value is 1.31 and 0.86 and 1.18.

A further assay concerns HEK293FT cells transfected with TF library. Description: Screening of TF condensates based on fluorescent puncta. In kind it is cell-based. As to conditions: Figure 1B numerical data; TF library screen, one value per transcriptional factor. Here is the method: TF plasmids were automatically added to black-walled 384-well plates at 80 ng per well to reach a final concentration of 1.6 μg/ml. Polyethylenimine (PEI, Sigma) was then added to the plasmid-loaded plates at 240 ng per well (4.8 μg/ml). Subsequently, HEK293FT cells were seeded into the plate at 2000 cells per well. After 60 h, cells were cultured in medium with or without glucose for 12 h, and then fixed with 4% paraformaldehyde (PFA) at room temperature for 30 min. After three washes with PBS, fixed cells were permeabilized with 0.05% Triton X-100 for 15 min. Thereafter, cells were blocked with 5% BSA for 1 h, and then incubated overnight with anti-Flag (Sigma F3165, 1:200) and anti-GAL4 (Abbkine ABP57232, 1:200) primary antibodies at 4 °C. The cells were then gently washed with PBS, followed by being incubated with Alexa Fluor Plus 488 goat anti-mouse IgG secondary antibody (Thermo A32723, 1:400) or Alexa Fluor Plus 488 goat anti-rabbit IgG secondary antibody (Thermo A32731, 1:400) for 1 h. The plates were kept at 4 °C in the dark before being analyzed using an Opera System (Perkin Elmer). Fifty random fields per well were scanned and analyzed using the Columbus Plus Image Data Storage and Analysis System (Perkin Elmer).
As to ZFP1, the “Z score of condensed fraction” value is reported as -1.01.
For the molecule ZFP37, the “Z score of condensed fraction” value was -0.4393.
With ZFP161, the “Z score of condensed fraction” value was -0.4432.
Still for that read-out and setting: then ZFP238, with -0.7406; and ZFP263, with 2.5993.
For ZKSCAN8, the “Z score of condensed fraction” value is listed as -0.06563.
Still for that read-out and setting: the same measure for ZNF10: -0.8346.
For the molecule ZNF22, the “Z score of condensed fraction” value was -0.4323.
Consider ZNF34, for which the “Z score of condensed fraction” value is given as -0.5261.
Consider ZNF37A, for which the “Z score of condensed fraction” value is recorded as -0.5462.
For ZNF57, the “Z score of condensed fraction” value is 0.3.
Consider ZNF77, for which the “Z score of condensed fraction” value is -1.086.
On to ZNF92, for which the “Z score of condensed fraction” value is 0.2513.
Consider ZNF132, for which the “Z score of condensed fraction” value was -0.5777.
For the molecule ZNF133, the “Z score of condensed fraction” value is on record as -0.4329.
Regarding ZNF136, the “Z score of condensed fraction” value was -0.8979.
As to ZNF175, the “Z score of condensed fraction” value is given as -0.614.
Turning to ZNF177, the “Z score of condensed fraction” value was -0.2364.
With ZNF197, the “Z score of condensed fraction” value is -0.8156.
Still for that read-out and setting: then ZNF212, with -0.4443.
Take ZNF221: the “Z score of condensed fraction” value is reported as -0.687.
In the case of ZNF223, the “Z score of condensed fraction” value came out at 0.1367.
With ZNF227, the “Z score of condensed fraction” value is -1.039.
In the case of ZNF230, the “Z score of condensed fraction” value is on record as 0.8569.
For the molecule ZNF254, the “Z score of condensed fraction” value is 0.4246.
Take ZNF257: the “Z score of condensed fraction” value is reported as 0.03056.
For ZNF267, the “Z score of condensed fraction” value came to 2.62.
On the same count and under the same terms, the same measure for ZNF273: -0.8812; for ZNF302: -1.141; for ZNF320: 0.5251.
As for ZNF329, the “Z score of condensed fraction” value was -0.4972.
For ZNF333, the “Z score of condensed fraction” value is -0.8758.
Turning to ZNF345, the “Z score of condensed fraction” value is given as -1.14.
ZNF404: the “Z score of condensed fraction” value is listed as -1.0199.
For ZNF417, the “Z score of condensed fraction” value came to 1.093.
As to ZNF432, the “Z score of condensed fraction” value is given as -0.5974.
Still for that read-out and setting: the same measure for ZNF433: -0.2089.
ZNF454: the “Z score of condensed fraction” value is -0.2763.
Take ZNF490: the “Z score of condensed fraction” value is given as -0.9623.
Still for that read-out and setting: then ZNF496, with 0.02283; and ZNF500, with -0.7824.
With ZNF517, the “Z score of condensed fraction” value is on record as -0.6071.
As for ZNF529, the “Z score of condensed fraction” value is -0.8409.
Consider ZNF530, for which the “Z score of condensed fraction” value is on record as -0.1863.
As to ZNF540, the “Z score of condensed fraction” value is on record as -0.9698.
On the same count and under the same terms, then ZNF548, with 1.7562; and ZNF549, with 2.12.
On to ZNF556, for which the “Z score of condensed fraction” value is on record as -0.2629.
Take ZNF562: the “Z score of condensed fraction” value came out at 1.118.
For the molecule ZNF572, the “Z score of condensed fraction” value is reported as -0.6768.
As to ZNF587, the “Z score of condensed fraction” value is recorded as 0.9024.
Regarding ZNF596, the “Z score of condensed fraction” value is on record as -0.5741.
On to ZNF621, for which the “Z score of condensed fraction” value was -0.6157.
With ZNF626, the “Z score of condensed fraction” value is on record as 2.964.
For ZNF643, the “Z score of condensed fraction” value is on record as 2.053.
Still for that read-out and setting: then ZNF670, with 2.5783.
For the molecule ZNF677, the “Z score of condensed fraction” value is reported as -0.6787.
With ZNF679, the “Z score of condensed fraction” value is -1.052.
On to ZNF680, for which the “Z score of condensed fraction” value is listed as -0.6442.
For ZNF689, the “Z score of condensed fraction” value is reported as -0.54.
For the molecule ZNF695, the “Z score of condensed fraction” value is -0.08978.
As for ZNF707, the “Z score of condensed fraction” value stood at 0.9339.
Take ZNF747: the “Z score of condensed fraction” value was 1.603.
For the molecule ZNF768, the “Z score of condensed fraction” value is on record as -0.6686.
In the case of ZNF785, the “Z score of condensed fraction” value is given as -0.4418.
As to ZNF829, the “Z score of condensed fraction” value is reported as 0.6314.
Turning to ZSCAN2, the “Z score of condensed fraction” value was -0.2191.
As to ZSCAN22, the “Z score of condensed fraction” value is given as -0.5621.
The same measure, in the same setting: then ZSCAN23, with 0.2133.

The next assay has as its system GFP-TEAD4 condensates. Description: siRNA screening based on TEAD4 condensate. Format: cell-based. Conditions: Figure 2B source data; siRNA against the named gene; Z score based analysis. Here is the method: siRNA reagents were obtained from the Dharmacon Human ON-TARGETplus siRNA Smartpool Library (Thermo) as described previously (Tang et al, [2020]). […] Lipofectamine RNAiMAX reagent (Thermo) at a volume of 0.05 μl per well was then added to the siRNA-loaded plates. Subsequently, cells expressing GFP-TEAD4 were seeded into the plate at 2000 cells per well. After subsequent transfection for 48 h, the cells were fixed with 4% PFA at room temperature for 30 min. DAPI was used to identify individual nuclei. The plates were kept at 4 °C in the dark before being analyzed using the Opera system. Twenty focus fields per well were scanned and analyzed. Scrambled siRNA was used as an internal reference on each plate.
As for RCOR3, the “Z score of condensed fraction” value is given as 1.432.

The next assay concerns HGC-27 cells. As to the kind of experiment: siRNA screening based on cell growth. More on the design: species or system human. Conditions: Figure 2B source data; siRNA against the named gene; Z score based analysis. Here is the method:
For screening based on cell growth, HGC-27 cells (2000 per well) were seeded into a 96-well plate overnight. The individual siRNAs targeting 192 BioID-identified genes were then added into each well to a final concentration of 25 nM. After subsequent incubation for 48 h, the cells were analyzed using an ATP-based CellCounting-Lite^TM 2.0 reagent (Vazyme, Nanjing, China) according to the manufacturer’s instructions. The intracellular ATP contents were measured using an EnSight™ Multimode Microplate Reader (Perkin Elmer).
Regarding RCOR3, the “Z score of cell growth” value came to 0.05778.

Source of the values: PMC11574045, “A cofactor-induced repressive type of transcription factor condensation can be induced by synthetic peptides to suppress tumorigenesis” (The EMBO Journal, 2024).
